From BindingDB's records for doi:10.7270/Q2PR7TCX (The Scripps Research Institute Molecular Screening Center, 2007)
Structures can show the parent of a compound that is named as a salt.

Each molecule was assayed against Steroidogenic factor 1 (Homo sapiens, UniProt Q13285) (assay: inhibition of SF-1 LBD-driven luciferase – cell-based, CHO-K1, Gal4-SF-1 LBD, luciferase luminescence, counter-screen for RORA inhibitor project, dose response (AID 611)). Details: not given.
Steroidogenic factor 1, sequence (Q13285 whole entry, the tested form may be a part): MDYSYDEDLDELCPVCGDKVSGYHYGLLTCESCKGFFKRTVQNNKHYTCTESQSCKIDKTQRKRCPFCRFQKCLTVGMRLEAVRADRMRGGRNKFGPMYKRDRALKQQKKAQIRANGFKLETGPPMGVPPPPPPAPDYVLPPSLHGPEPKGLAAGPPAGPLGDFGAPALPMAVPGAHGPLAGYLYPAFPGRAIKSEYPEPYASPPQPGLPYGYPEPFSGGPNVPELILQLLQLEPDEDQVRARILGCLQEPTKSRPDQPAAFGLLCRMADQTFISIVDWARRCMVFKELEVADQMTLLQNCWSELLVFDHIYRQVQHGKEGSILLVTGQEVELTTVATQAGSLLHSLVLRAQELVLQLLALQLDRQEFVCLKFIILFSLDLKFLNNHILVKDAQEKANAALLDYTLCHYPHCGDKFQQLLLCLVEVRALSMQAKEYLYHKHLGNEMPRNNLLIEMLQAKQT

SMILES | IC50 [µM]
Cc1oc2cc3c(C(=O)OCCN(C)C)c(C)oc3cc2c1C(=O)OCCN(C)C [2,6-Dimethyl-benzo[1,2-b;4,5-b']difuran-3,7-dicarboxylic acid bis-(2-dimethylamino-ethyl) ester] | 0.892
Cc1ccc(C(=O)CC=Nc2ccccn2)cc1 [(E)-1-(4-methylphenyl)-3-(2-pyridinylamino)-2-propen-1-one] | 1.49
CCOc1ccc(-c2noc(CCC(=O)O)n2)cc1 [3-(3-p-phenetyl-1,2,4-oxadiazol-5-yl)propionic acid] | 8.46
Cc1cccc(-n2ncc3c(N4CCOCC4)ncnc32)c1 [4-[1-(3-methylphenyl)-4-pyrazolo[3,4-d]pyrimidinyl]morpholine] | > 3.67
CCc1ccc(-c2cn3nc(C)c(C)nc3n2)cc1 [6-(4-ethylphenyl)-2,3-dimethyl-imidazo[1,2-b][1,2,4]triazine] | 1.73
C=CCOc1nc2c(c(=O)n(C)c(=O)n2C)n1Cc1ccc(Cl)cc1Cl [7-[(2,4-dichlorophenyl)methyl]-1,3-dimethyl-8-prop-2-enoxy-purine-2,6-dione] | > 33
c1coc(CNc2ncnc3ccccc23)c1 [2-furfuryl(quinazolin-4-yl)amine;hydrochloride] | 17.3
Cc1cc(N2CCN(c3nc4ccccc4s3)CC2)n2ncnc2n1 [2-[4-(5-methyl-[1,2,4]triazolo[1,5-a]pyrimidin-7-yl)-1-piperazinyl]-1,3-benzothiazole] | 9.02
COc1ccc(-c2nc(-c3ccccc3)no2)c(OC)c1 [5-(2,4-dimethoxyphenyl)-3-phenyl-1,2,4-oxadiazole] | 2.82
COc1ccccc1-c1nnc2sc(-c3ccc(N(C)C)cc3)nn12 [4-[3-(2-methoxyphenyl)-[1,2,4]triazolo[3,4-b][1,3,4]thiadiazol-6-yl]-N,N-dimethyl-aniline] | 3.24
COc1cccc(-c2nnc3n2N=C(C(C)(C)C)CS3)c1 [6-tert-butyl-3-(3-methoxyphenyl)-7H-[1,2,4]triazolo[3,4-b][1,3,4]thiadiazine] | 7.59
O=c1c2ccccc2cnn1-c1nc2ccccc2s1 [2-(1,3-benzothiazol-2-yl)-1-phthalazinone] | 0.728
COc1ccc(-c2noc(CCCC(=O)O)n2)cc1 [4-[3-(4-methoxyphenyl)-1,2,4-oxadiazol-5-yl]butanoic acid] | 2.72
O=C(CSc1nnnn1C1CC2CCC1C2)Nc1ccnc2ccccc12 (centres undefined) [2-[(1-bicyclo[2.2.1]hept-2-yl-1H-tetrazol-5-yl)thio]-N-4-quinolinylacetamide] | 0.444
Cc1ccc(-c2nc(-c3ccccn3)no2)cc1 [5-(4-methylphenyl)-3-(2-pyridinyl)-1,2,4-oxadiazole] | 1.05
O=C(Nc1nc2cc3c(cc2s1)OCO3)C1=COCCO1 [MLS000103798] | 4.16
O=C(Nc1nc2ccccc2[nH]1)c1ccc(F)cc1 [N-1,3-dihydro-2H-benzimidazol-2-ylidene-4-fluorobenzamide] | > 11

SMILES | IC50 [µM]
COc1ccc(-c2nc(CSCC(=O)NCc3ccco3)c(C)o2)cc1 [MLS000089353] | 7.05
CCc1nn2cc(-c3ccccc3)nc2s1 [2-ethyl-6-phenyl-imidazo[2,1-b][1,3,4]thiadiazole] | > 3.67
COc1cc(CC(NC(C)=O)C(=O)NC2CCN(c3nc(C)cc(C)c3C#N)CC2)cc(OC)c1 (centres undefined) [2-Acetylamino-N-(3'-cyano-4',6'-dimethyl-3,4,5,6-tetrahydro-2H-[1,2']bipyridinyl-4-yl)-3-(3,5-dimethoxy-phenyl)-propionamide] | > 99
Cc1ccc(S(=O)(=O)Nc2cccc3ncccc23)s1 [5-methyl-N-quinolin-5-ylthiophene-2-sulfonamide] | 5.33
N#Cc1c(NC(=O)CSc2nc(N)cc(=O)[nH]2)sc2c1CCCCCC2 [2-[(6-amino-4-oxo-1H-pyrimidin-2-yl)sulfanyl]-N-(3-cyano-4,5,6,7,8,9-hexahydrocycloocta[b]thiophen-2-yl)acetamide] | 14.6
O=c1cc(-c2c(F)c(F)c(F)c(F)c2F)oc2c(F)c(F)c(F)c(F)c12 [5,6,7,8-tetrafluoro-2-(2,3,4,5,6-pentafluorophenyl)-1-benzopyran-4-one] | 4.81
CCOC(=O)c1c(N)sc(C(=O)Nc2ccc3c(c2)OCO3)c1C [2-amino-5-(1,3-benzodioxol-5-ylcarbamoyl)-4-methyl-thiophene-3-carboxylic acid ethyl ester] | 8.33
Cn1nc(C(C)(C)C)cc1C(=O)NCc1ccc(N2CCCC2=O)cc1 [5-tert-Butyl-2-methyl-2H-pyrazole-3-carboxylic acid 4-(2-oxo-pyrrolidin-1-yl)-benzylamide] | 3.18
C=CS(=O)(=O)c1ccc(Oc2ccc(S(=O)(=O)C=C)cc2)cc1 [1-ethenylsulfonyl-4-(4-ethenylsulfonylphenoxy)benzene] | 5.29
CCOC(=O)N1CCN(C(=O)C2CCN(c3ncnc4c3sc3cccc(F)c34)CC2)CC1 [4-[1-(9-fluorobenzothiopheno[3,2-d]pyrimidin-4-yl)isonipecotoyl]piperazine-1-carboxylic acid ethyl ester] | 6.51
COc1cccc2c1C(=O)c1c(O)c3c(c(O)c1C2=O)C[C@@](O)(C(C)=O)C[C@@H]3O[C@H]1C[C@H](N)[C@H](O)[C@H](C)O1 [(7S,9S)-9-acetyl-7-[(2R,4S,5S,6S)-4-amino-5-hydroxy-6-methyloxan-2-yl]oxy-6,9,11-trihydroxy-4-methoxy-8,10-dihydro-7H-tetracene-5,12-dione;hydrochloride] | 0.409
CC(NC(=O)Nc1nnc(C(F)(F)F)s1)(C(F)(F)F)C(F)(F)F [1-(1,1,1,3,3,3-hexafluoro-2-methylpropan-2-yl)-3-[5-(trifluoromethyl)-1,3,4-thiadiazol-2-yl]urea] | 5.6
c1ccc(-n2ncc3c(N4CCCCC4)ncnc32)cc1 [1-phenyl-4-(1-piperidinyl)pyrazolo[3,4-d]pyrimidine] | 4.47
Clc1cccc(-c2nc(-c3ccccn3)no2)c1 [2-[5-(3-Chloro-phenyl)-[1,2,4]oxadiazol-3-yl]-pyridine] | 5.41
O=S(=O)(C/C(=C/CO)S(=O)(=O)c1ccccc1)c1ccccc1 [(Z)-3,4-bis(benzenesulfonyl)but-2-en-1-ol] | 4.03
COc1ccc(-c2cc(C(F)(F)F)nc(S(C)(=O)=O)n2)cc1OC [4-(3,4-dimethoxyphenyl)-2-methylsulfonyl-6-(trifluoromethyl)pyrimidine] | 7.15

Same assay, conditions: inactive by the depositor's call

SMILES | IC50 [µM]
Cc1ccc(S(=O)(=O)NCc2ccncc2)cc1 [4-Methyl-N-pyridin-4-ylmethyl-benzenesulfonamide] | 11.6
Cc1ccccc1OCC(=O)Nc1ccc(N2CCN(C(=O)C(C)C)CC2)c(Cl)c1 [MLS000034491] | 14
CCCCN(CCCC)S(=O)(=O)c1ccc(C(=O)Nc2nnc(CSC)o2)cc1 [4-(dibutylsulfamoyl)-N-[5-(methylsulfanylmethyl)-1,3,4-oxadiazol-2-yl]benzamide] | 24.4
CS(=O)(=O)c1nc(-c2ccco2)cc(C(F)(F)F)n1 [MLS000044646] | 10.8
CC1(C)COCN1S(=O)(=O)c1ccc(C(=O)Nc2nnc(-c3ccc(Cl)s3)o2)cc1 [MLS000086346] | 12.2
COc1ccc(CNc2cc(C)nc3ncnn23)c(OC)c1 [(2,4-Dimethoxy-benzyl)-(5-methyl-[1,2,4]triazolo[1,5-a]pyrimidin-7-yl)-amine] | 23.4
